Measurements taken from US11091479B2, “Triazolopyridin-3-ones or their salts and pharmaceutical compositions comprising the same” (YUHAN CORPORATION, priority 2018, dated 2021).
Where a name gives a salt, the structure may show the parent alone.

Experiments:
Format in all cases: biochemical
[1] = target: T1, recombinant human VAP-1 (Homo sapiens, UniProt Q16853); assay: Activity on recombinant human VAP-1, HRP-coupled Amplex Red hydrogen peroxide assay, benzylamine substrate; conditions: 30 min incubation at 37° C., 1 mM benzylamine, read-out: Inhibitory Activity (IC50, nM) human VAP-1
T1 construct: purchased R&D systems
T1 sequence (Q16853 1-763): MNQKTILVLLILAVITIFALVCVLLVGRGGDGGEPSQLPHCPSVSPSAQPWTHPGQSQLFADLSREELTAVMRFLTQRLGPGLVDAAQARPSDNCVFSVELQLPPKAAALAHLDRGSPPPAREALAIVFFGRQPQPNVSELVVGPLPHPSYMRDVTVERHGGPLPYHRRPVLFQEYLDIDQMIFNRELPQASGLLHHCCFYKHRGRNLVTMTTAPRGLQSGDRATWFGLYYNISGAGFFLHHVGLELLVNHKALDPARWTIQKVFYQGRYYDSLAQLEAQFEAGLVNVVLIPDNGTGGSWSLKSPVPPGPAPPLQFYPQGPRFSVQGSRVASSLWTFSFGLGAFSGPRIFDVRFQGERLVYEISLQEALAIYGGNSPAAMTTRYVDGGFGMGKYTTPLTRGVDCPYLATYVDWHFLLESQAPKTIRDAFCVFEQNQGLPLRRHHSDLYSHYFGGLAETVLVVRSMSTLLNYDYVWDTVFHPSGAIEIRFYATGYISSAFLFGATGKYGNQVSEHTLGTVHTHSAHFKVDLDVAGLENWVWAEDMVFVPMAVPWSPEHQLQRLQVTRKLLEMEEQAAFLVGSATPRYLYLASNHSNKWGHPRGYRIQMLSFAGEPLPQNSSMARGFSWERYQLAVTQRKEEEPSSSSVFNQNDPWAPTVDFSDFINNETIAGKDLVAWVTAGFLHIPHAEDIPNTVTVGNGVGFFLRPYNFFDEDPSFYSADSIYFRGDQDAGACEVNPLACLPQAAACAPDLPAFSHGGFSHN
Experimental: (§1) The compounds according to the present technology were evaluated in terms of activity on recombinant human VAP-1 (R&D systems) by measuring the level of hydrogen peroxide in horseradish peroxidase (HRP)-coupled reaction using Amplex Red Hydrogen Peroxide Assay Kit (Molecular Probes, Invitrogen, USA). The experiment was carried out at room temperature using benzylamine as a substrate. In the HRP-coupled reaction, hydrogen peroxide oxidation of 10-acetyl-3,7-dihydroxyphenoxazine (Amplex Red reagent) produces resorufin, which is a highly fluorescent compound. Briefly, the test compound was dissolved in dimethyl sulfoxide (DMSO) at a concentration of 20 mM. The dose-response assessment was made by 1:3 serial dilution in DMSO, thereby creating a 8 point curve. The concentration of the upper part was controlled according to the efficacy of the compounds, followed by dilution with a reaction buffer solution to obtain a final DMSO concentration of less than 1%. To each well of a 96 black well plate, human VAP-1 purified in 50 mM sodium phosphate buffer solution (pH7.4) was added. The test compounds dissolved in DMSO were incubated with the human VAP-1 enzymes at 37° C. for 30 minutes. After 30-minute incubation, each well was added with a reaction mixture containing 200 uM Amplex Red reagent prepared from 50 mM sodium phosphate buffer solution (pH 7.4), 1 mM benzylamine, and 1 U/mL HRP. Fluorescence intensity was measured at several time points during 1-2 hours using a microplate reader (Flexstation3, Molecular Devices) under the wavelength condition exciting at 544 nm and reading the emission at 590 nm. The inhibitory effect of the compounds was measured as a decrease (%) in the signal rate as compared to the control group without any inhibitor (only diluted DMSO). Data was fixed to a logistic model with four variables and IC50 value was calculated using GraphPad Prism program.

[2] = target: T2, recombinant human MAO-A (monoamine oxidase-A) (Homo sapiens, UniProt P21397); assay: Activity on recombinant human MAO-A, method similar to VAP-1 assay, 0.5 mM tyramine substrate; conditions: read-out: Inhibitory Activity (IC50, nM) MAO-A
T2 construct: purchased Sigma-Aldrich
T2 sequence (P21397 1-527): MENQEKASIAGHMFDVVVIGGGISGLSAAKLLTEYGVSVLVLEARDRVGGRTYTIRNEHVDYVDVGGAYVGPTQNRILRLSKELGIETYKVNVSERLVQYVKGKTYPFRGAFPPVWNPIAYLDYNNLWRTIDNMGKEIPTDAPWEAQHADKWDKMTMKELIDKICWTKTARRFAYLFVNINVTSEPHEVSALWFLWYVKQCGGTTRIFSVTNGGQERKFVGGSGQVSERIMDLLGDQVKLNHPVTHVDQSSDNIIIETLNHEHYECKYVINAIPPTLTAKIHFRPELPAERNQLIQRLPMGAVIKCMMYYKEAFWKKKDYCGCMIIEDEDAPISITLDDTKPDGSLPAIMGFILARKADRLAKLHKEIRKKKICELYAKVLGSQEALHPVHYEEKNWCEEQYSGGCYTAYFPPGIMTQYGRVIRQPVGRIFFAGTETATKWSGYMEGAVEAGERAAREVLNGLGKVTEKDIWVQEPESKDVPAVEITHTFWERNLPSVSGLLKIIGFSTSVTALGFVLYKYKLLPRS
Experimental: as §1
(§2) In addition, the compounds according to the present technology were evaluated in terms of activity on a recombinant human MAO-A (monoamine oxidase-A, Sigma-Aldrich) and a recombinant human MAO-B(monoamine oxidase-B, Sigma-Aldrich) by using as substrates, 0.5 mM tyramine and 1 mM benzylamine, respectively, with a method similar to the activity evaluation method for recombinant human VAP-1. The compounds according to the present technology were also evaluated in terms of activity on a recombinant human DAO (diamine oxidase, R&D systems) by using as a substrate 1 mM putrescine with a method similar to the activity evaluation method for recombinant human VAP-1.

[3] = target: T3, recombinant human MAO-B (monoamine oxidase-B) (Homo sapiens, UniProt P27338); assay: Activity on recombinant human MAO-B, method similar to VAP-1 assay, 1 mM benzylamine substrate; conditions: read-out: Inhibitory Activity (IC50, nM) MAO-B
T3 construct: purchased Sigma-Aldrich
T3 sequence (P27338 1-520): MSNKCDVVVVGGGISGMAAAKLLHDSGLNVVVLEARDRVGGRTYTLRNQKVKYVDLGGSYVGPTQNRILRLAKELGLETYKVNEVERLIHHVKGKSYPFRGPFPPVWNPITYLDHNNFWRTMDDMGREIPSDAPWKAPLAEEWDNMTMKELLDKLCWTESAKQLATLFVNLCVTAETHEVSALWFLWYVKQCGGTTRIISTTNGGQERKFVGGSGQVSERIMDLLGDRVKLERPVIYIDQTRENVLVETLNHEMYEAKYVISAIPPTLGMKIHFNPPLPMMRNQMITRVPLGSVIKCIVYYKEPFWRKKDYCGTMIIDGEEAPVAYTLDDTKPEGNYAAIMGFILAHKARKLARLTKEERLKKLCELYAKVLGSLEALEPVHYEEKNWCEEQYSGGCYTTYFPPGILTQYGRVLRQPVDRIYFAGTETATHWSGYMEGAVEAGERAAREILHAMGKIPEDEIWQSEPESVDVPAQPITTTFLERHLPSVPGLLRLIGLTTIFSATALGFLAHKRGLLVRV
Experimental: as §1, §2

[4] = target: T4, recombinant human DAO (diamine oxidase) (Homo sapiens, UniProt P19801); assay: Activity on recombinant human DAO, method similar to VAP-1 assay, 1 mM putrescine substrate; conditions: read-out: Inhibitory Activity (IC50, nM) DAO
T4 construct: purchased R&D systems
T4 sequence (P19801 20-751): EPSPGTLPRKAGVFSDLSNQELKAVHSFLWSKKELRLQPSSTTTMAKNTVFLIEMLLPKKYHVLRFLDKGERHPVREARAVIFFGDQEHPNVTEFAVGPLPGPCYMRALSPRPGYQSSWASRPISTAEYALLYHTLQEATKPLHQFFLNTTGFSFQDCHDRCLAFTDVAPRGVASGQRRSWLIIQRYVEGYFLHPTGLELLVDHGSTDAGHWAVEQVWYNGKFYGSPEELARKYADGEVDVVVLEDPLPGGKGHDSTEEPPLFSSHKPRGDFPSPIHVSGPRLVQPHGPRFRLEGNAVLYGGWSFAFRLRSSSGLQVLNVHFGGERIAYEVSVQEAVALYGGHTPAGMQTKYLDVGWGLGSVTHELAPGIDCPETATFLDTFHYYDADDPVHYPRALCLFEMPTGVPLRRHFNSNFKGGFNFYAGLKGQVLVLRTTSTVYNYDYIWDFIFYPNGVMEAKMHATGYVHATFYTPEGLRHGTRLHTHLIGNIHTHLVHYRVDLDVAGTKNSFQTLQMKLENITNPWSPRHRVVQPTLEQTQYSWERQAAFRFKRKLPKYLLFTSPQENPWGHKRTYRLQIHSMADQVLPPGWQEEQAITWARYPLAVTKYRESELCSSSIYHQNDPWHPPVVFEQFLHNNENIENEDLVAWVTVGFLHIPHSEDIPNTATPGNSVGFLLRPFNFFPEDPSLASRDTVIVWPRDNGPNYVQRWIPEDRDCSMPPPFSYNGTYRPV
Experimental: as §1, §2

IC50 [1] [nM]	IC50 [2] [nM]	IC50 [3] [nM]	IC50 [4] [nM]	Structure (SMILES)
0.4	44000	380	4	NC/C(=C\F)Cn1nc2cc(-c3ccc(-c4noc(C5CC5)n4)cc3)ccn2c1=O [Example 29, 2-[(2E)-2-(aminomethyl)-3-fluoroprop-2-en-1-yl]-7-[4-(5-cyclopropyl-1,2,4-oxadiazol-3-yl)phenyl][1,2,4]triazolo[4,3-a]pyridin-3(2H)-one hydrochloride]
0.3	66000	3.8	20	NC/C(=C\F)Cn1nc2cc(-c3ccc4c(c3)OCO4)ccn2c1=O [Example 36, 2-[(2E)-2-(aminomethyl)-3-fluoroprop-2-en-1-yl]-7-(1,3-benzodioxol-5-yl)[1,2,4]triazolo[4,3-a]pyridin-3(2H)-one hydrochloride]
150				NC/C(=C\F)Cn1nc2cccc(-c3ccc4nonc4c3)n2c1=O [Example 21, 2-[(2E)-2-(aminomethyl)-3-fluoroprop-2-en-1-yl]-5-(2,1,3-benzoxadiazol-5-yl)[1,2,4]triazolo[4,3-a]pyridin-3(2H)-one trifluoroacetate]
24	> 100000	> 100000	11000	NCC(Cn1nc2cccc(Br)n2c1=O)=C(F)F [Example 45, 2-[2-(aminomethyl)-3,3-difluoro-allyl]-5-bromo-[1,2,4]triazolo[4,3-a]pyridin-3-one trifluoroacetate]
0.5	> 100000	140	9.6	Cc1cc(-c2ccn3c(=O)n(C/C(=C/F)CN)nc3c2)cc2c1NC(=O)CC2 [Example 43, 6-[2-[(2E)-2-(aminomethyl)-3-fluoroprop-2-en-1-yl]-3-oxo-2,3-dihydro[1,2,4]triazolo[4,3-a]pyridin-7-yl]-8-methyl-3,4-dihydroquinolin-2(1H)-one hydrochloride]
0.4		130	5.8	NC/C(=C\F)Cn1nc2cc(-c3ccc(N4CCOCC4)nc3)ccn2c1=O [Example 33, 2-[(2E)-2-(aminomethyl)-3-fluoroprop-2-en-1-yl]-7-[6-(morpholin-4-yl)pyridin-3-yl][1,2,4]triazolo[4,3-a]pyridin-3(2H)-one hydrochloride]
> 100				NC/C(=C\F)Cn1nc2cccc(-c3ccc4c(c3)OCO4)n2c1=O [Example 20, 2-[(2E)-2-(aminomethyl)-3-fluoroprop-2-en-1-yl]-5-(1,3-benzodioxol-5-yl)[1,2,4]triazolo[4,3-a]pyridin-3(2H)-one trifluoroacetate]

The remaining lines, values behind:

Structure (SMILES)	IC50 [1] [nM]	IC50 [2] [nM]	IC50 [3] [nM]	IC50 [4] [nM]
CC(=O)Nc1ccc(-c2cccc3nn(C/C(=C/F)CN)c(=O)n23)cc1 [Example 18, N-[4-[2-[(2E)-2-(aminomethyl)-3-fluoroprop-2-en-1-yl]-3-oxo-2,3-dihydro[1,2,4]triazolo[4,3-a]pyridin-5-yl]phenyl]acetamide trifluoroacetate]	90			
NC/C(=C\F)Cn1nc2ccc(-c3ccc(N4CCOCC4)nc3)cn2c1=O [Example 11, 2-[(2E)-2-(aminomethyl)-3-fluoroprop-2-en-1-yl]-6-[6-(morpholin-4-yl)pyridin-3-yl][1,2,4]triazolo[4,3-a]pyridin-3(2H)-one hydrochloride]	3.7		39	0.2
NC/C(=C\F)Cn1nc2cccc(-c3ccc(-c4ccon4)cc3)n2c1=O [Example 19, 2-[(2E)-2-(aminomethyl)-3-fluoroprop-2-en-1-yl]-5-[4-(1,2-oxazol-3-yl)phenyl][1,2,4]triazolo[4,3-a]pyridin-3(2H)-one trifluoroacetate]	38			
NC/C(=C\F)Cn1nc2ccc(Br)cn2c1=O [Example 1, 2-[(2E)-2-(aminomethyl)-3-fluoroprop-2-en-1-yl]-6-bromo[1,2,4]triazolo[4,3-a]pyridin-3(2H)-one hydrochloride]	87			100
CC(=O)Nc1cc(-c2ccc3nn(C/C(=C/F)CN)c(=O)n3c2)ccn1 [Example 8, N-[4-[2-[(2E)-2-(aminomethyl)-3-fluoroprop-2-en-1-yl]-3-oxo-2,3-dihydro[1,2,4]triazolo[4,3-a]pyridin-6-yl]pyridin-2-yl]acetamide trifluoroacetate]	14			< 100
